Here are results for one compound from paper PMC8350397, “GSK137, a potent small-molecule BCL6 inhibitor with in vivo activity, suppresses antibody responses in mice” (The Journal of Biological Chemistry, 2021).

In data set [1] the target is T1, human BCL6 BTB-POZ domain (BCL6 co-repressor peptide) (Homo sapiens, UniProt P41182, C67R/C84N/C8Q).
T1 construct: BCL6-Flag-6H-Avi (5-129) C8Q, C67R, C84N proteins; Flag (C); 6H (His6) (C); made in house; host or cells: E. coli
Put plainly: BCL6 TR-FRET assay, BCOR peptide displacement. The settings on record: read-out: pIC50 Human TR-FRET BCL6 co-repressor (converted). It counts as binding. As for the experimental part:
(§1) Human, mouse and rat BCL6-Flag-6H-Avi (5-129) C8Q, C67R, C84N proteins were expressed in E. coli according to standard procedures and purified on Ni-NTA, followed by ion exchange on a Source 30Q column and size exclusion on an Superdex 200 column in a buffer of 20 mM Tris, 250 mM NaCl, 5 mM DTT, 5% glycerol, pH 8.5. All protein purities were estimated to be >90% by SDS-PAGE and the expected masses were confirmed by MS analysis. For TR-FRET assay protein was enzymatically biotinylated by treatment of protein at 100 µM with a 2 fold molar excess of biotin in the presence of 2 mM ATP and 1 µM BirA enzyme in a buffer of 50 mM bicine pH 8.3, 10 mM MgCl2 at 30 °C for 1 hour, followed by extensivedialysis against 50 mM Tris-Cl pH 8.0, 100 mM NaCl, 1 mM DTT using a 3.5 kDa cut-off membrane. Biotinylation was confirmed by MS analysis and concentration was determined by Bradford assay, after which protein was stored in aliquots at -80 °C.
(§2) Acceptor-labelled SMRT peptide H2N-[…](D2)-OH was dissolved in water by mass to give a 500 µM stock solution which was stored at -20 °C. Acceptor-labelled NCOR peptide H2N-[…](Alexa Fluor 647)-OH and acceptor-labelled BCOR peptide H2N-[…](Alexa Fluor 647)-OH were dissolved to a nominal concentration of 1 mM in DMSO, and stock solution concentration was determined by absorbance at 650 nm using an extinction coefficient of 270,000 M-1cm^-1. […]

The nature of data set [2]: Pharmacokinetics in blood during the immunization study. The format is in vivo. Particulars: male, CD1, mouse, whole blood, po; for AUC: daily steady state, from simulated profiles; for Tmax: day 8; for Cmax: day 8, blood. The method, then: (§3) Male CD1 mice (30–40 g, 8–9 weeks of age) were randomized into study treatment groups, housed individually and allowed to acclimatize under standard laboratory conditions for a minimum of 5 days prior to commencement of the study. Mice received food and water ad libitum. The experiment was performed in a certified dedicated in vivo experimental laboratory at the GlaxoSmithKline Medicines Research Centre, Stevenage, United Kingdom. The four treatment groups were (1) unimmunized and untreated (naive group) (n = 4); (2) intraperitoneal vehicle (n = 13), (3) GSK137 15 mg/kg (n = 14), and (4) GSK137 30 mg/kg (n = 14). Groups (2) to (4) were given intraperitoneal immunization with TNP–KLH (100 μg) on day 0, vehicle was 1% methylcellulose in water + 0.1% sodium lauryl sulphate, and compound or vehicle was given to groups (2) to (4) by oral gavage three times per day from day −1 to day +12. Blood samples were collected by tail vein for measurement of compound, IgM and IgG levels on days 0, 5, 8, and 12 ahead of immunization/first daily dose. On day 8, blood samples were also taken (n = 7) at 0.5, 1.5, 3, 5, or 7 h after first daily dose. On day 12, spleens were collected, weighed, and placed into Dulbecco's modified Eagle's medium on wet ice for analysis by flow cytometry.
Mouse blood/water (50/50) samples were analyzed for GSK137 using an analytical method based on protein precipitation, followed by HPLC/MS–MS analysis. The lower limit of quantification for GSK137 was 1.2 ng/ml with a higher limit of quantification of 3000 ng/ml. A two-compartment PK model was used to describe the measured composite mean steady-state oral concentration–time profiles. A three times per day dose simulation was performed using the two-compartment PK model parameters generated to simulate the repeat dose concentration–time profile. All modelings were conducted in Phoenix64 (WinNonLin) version 8.1 (Pharsight).

Data set [3] is described as follows: Tolerability in the immunization model (body weight, signs of toxicity, cytokines). It counts as in vivo, mouse. As for the experimental part:
as §3
To determine cytokine and chemokine levels plasma samples were analysed by electrochemiluminescence assay using a custom mouse multiplex kit (K15355K-4, Meso Scale Diagnostics (MSD), Rockville, MD, USA) to measure IFNγ, IL-6, IL-10, TNF, MCP-1, KC, IL-12, IL1b, IL-13 and IL17a according to the manufacturer’s protocol. Plates were read using an MSD Sector Imager 6000 and analysed with Discovery workbench software v4.0.11, cytokine data were back-fitted to the MSD standard curve.

The target of data set [4] is T2, rat BCL6 and SMRT (Rattus norvegicus, UniProt B2GUV8, C67R/C84N/C8Q).
T2 construct: BCL6-Flag-6H-Avi (5-129) C8Q, C67R, C84N proteins; Flag (C); 6H (His6) (C); made in house; host or cells: E. coli
Put plainly: BCL6 TR-FRET assay, rat BCL6 and SMRT. The format is binding. As for the experimental part: as §1, §2

As to `Cc1ncccc1[C@H]1C[C@@H](c2cccc3nc(N)ccc23)Nc2c(F)cnn21` [GSK137, 5-((5S,7R)-3-Fluoro-7-(2-methylpyridin-3-yl)-4,5,6,7-tetrahydropyrazolo[1,5-a]pyrimidin-5-yl)quinolin-2-amine], the IC50 in data set [1] is 25.1 nM. In addition, in data set [2] (15 mg/kg orally TID), the AUC was 3400 ng·h/mL, the Tmax was 30 min and the Cmax is 471 ± 226 ng/mL. Also, in data set [2] (30 mg/kg orally TID), the AUC is 6810 ng·h/mL, the time of peak concentration (Tmax) came out at 30 min and the peak level (Cmax) was 1340 ± 141 ng/mL. For the same compound, the “mouse weights vs vehicle group” value in data set [3] (15 and 30 mg/kg orally TID, over the experiment) is listed as “did not vary significantly”. For the same compound, the “overt signs of toxicity” value in data set [3] (at the doses used (15 and 30 mg/kg)) is reported as “no overt signs of toxicity”. Further, in data set [3] (mouse, in vivo), the “levels of a panel of cytokines vs vehicle” value was “either undetectable or, if detectable, did not differ significantly”. In data set [4], the “pIC50 Rat TR-FRET SMRT” value is given as 7.6.
